This note sets out measurements from US20260184708A1, “PYRIDAZINONES AND METHODS OF USE THEREOF” (GFB (ABC), LLC, priority 2017, published 2026).

A word on the IC50: it is the point on the concentration scale where inhibition reaches its midpoint.

The first assay addresses T1, TRPC4 (Homo sapiens, UniProt Q9UBN4).
T1 construct: expressed in transfected cells; host or cells: HEK-TREx (HekTrex-293), cell line ICLN-1694, tetracycline-induced
T1 sequence (Q9UBN4 1-982 isoform Q9UBN4-5): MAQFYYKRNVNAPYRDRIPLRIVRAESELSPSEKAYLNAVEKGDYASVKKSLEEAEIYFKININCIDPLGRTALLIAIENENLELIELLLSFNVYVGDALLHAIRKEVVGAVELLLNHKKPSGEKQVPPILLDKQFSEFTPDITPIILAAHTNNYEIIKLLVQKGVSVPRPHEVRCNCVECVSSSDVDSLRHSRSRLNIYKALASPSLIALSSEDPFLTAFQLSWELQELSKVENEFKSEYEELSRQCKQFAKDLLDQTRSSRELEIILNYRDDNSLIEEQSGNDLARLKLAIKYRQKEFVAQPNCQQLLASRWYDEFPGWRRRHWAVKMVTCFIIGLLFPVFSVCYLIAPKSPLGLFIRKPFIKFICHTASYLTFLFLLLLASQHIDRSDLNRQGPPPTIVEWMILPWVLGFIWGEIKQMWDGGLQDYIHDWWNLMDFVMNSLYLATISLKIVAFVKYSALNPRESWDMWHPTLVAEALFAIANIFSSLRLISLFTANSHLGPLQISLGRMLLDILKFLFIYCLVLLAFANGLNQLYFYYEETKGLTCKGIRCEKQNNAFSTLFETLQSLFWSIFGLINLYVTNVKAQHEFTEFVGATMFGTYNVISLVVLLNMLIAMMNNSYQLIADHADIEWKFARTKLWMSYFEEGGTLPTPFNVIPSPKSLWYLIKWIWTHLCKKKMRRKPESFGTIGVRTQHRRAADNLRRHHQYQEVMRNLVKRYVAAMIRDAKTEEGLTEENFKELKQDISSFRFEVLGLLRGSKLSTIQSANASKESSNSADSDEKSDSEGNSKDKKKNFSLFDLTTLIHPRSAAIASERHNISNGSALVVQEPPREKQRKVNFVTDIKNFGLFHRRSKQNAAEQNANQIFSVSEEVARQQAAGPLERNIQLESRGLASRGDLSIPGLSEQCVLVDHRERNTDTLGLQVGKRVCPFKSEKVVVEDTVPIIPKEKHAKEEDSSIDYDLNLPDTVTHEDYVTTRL
Kind of assay: TRPC4 FLIPR Assay (HEK-TREx hTRPC4, Englerin A stimulation).
Settings: not given
Format: cell-based. How it is done: FLIPR Assay Buffer (Earls Balanced Salt Solution (EBSS)) was prepared as follows:
10-point dose response curves were generated using the Echo-550 acoustic dispenser. Compound source plates were made by serially diluting compound stocks to create 10 mM, 1 mM, and 0.1 mM solutions in DMSO into Echo certified LDV plates. The Echo then serially spotted 100% DMSO stock solutions into source dose response plates to generate a 4-fold dilution scheme. 100% DMSO was added to the spotted dose response plates to bring the final volume to 5 μl. […] of the dose response stock plate was then spotted into pre-incubation and stimulation assay plates. […] of pre-incubation buffer and 100 μl of stimulation buffer was then added to the plates resulting in a final assay test concentration range of 30 μM to 0.0001 μM with a final DMSO concentration of 0.3%.
Experimental Methods: Cells expressing TRPC4 were plated onto 384 well, black pdl-coated microplates and maintained in TRPC4 growth media the day prior to use for experiments. TRPC4 expression was induced by the application of 1 μg/ml tetracycline at the time of plating. […] Cells were incubated at room temperature, protected from light, for 60-90 minutes. After the incubation period, the dye was removed and replaced with 10 μl of EBSS. Cell, pre-incubation and stimulation plates were loaded onto the FLIPR-II and the assay was initiated. The FLIPR measured a 10 second baseline and then added 10 μl of 2× compounds (or controls). Changes in fluorescence were monitored for an additional 5 minutes. After a 5 minute pre-incubation, 20 μl of 2× Englerin A (with 1× compound or controls) was added to the cell plate. The final Engerlin A stimulation concentration in the assay is 100 nM. After the Englerin A addition, changes in fluorescence were monitored for an additional 5 minutes.
Test Agent Effect: Test agent modulation of TRPC4 calcium response was determined as follows. After the Englerin A, fluorescence was monitored for a 5 minute period. The maximum relative fluorescence response (minus the control response of […] of the control inhibitor) was captured and exported from the FLIPR. Test agent effect was calculated as % inhibition using the following formula: % inhibition=((RFU TEST AGENT−Plate Average RFU REF INHIB)/(Plate Average RFU CONTROL−Plate Average RFU REF INHIB))×100
`O=C1CN(c2cn[nH]c(=O)c2Cl)CCN1Cc1cc(F)ccc1C(F)(F)F` displayed an IC50 of 0.01 to 1000 nM.

Staying with this assay, now noted: Table 8; HEK-TREx hTRPC4; read-out: TRPC4 FLIPR IC50.
In the case of `CCc1ncccc1CN1CCN(c2cn[nH]c(=O)c2Cl)CC1`, the IC50 lay within 0.01 to 1000 nM.
Regarding `C[C@@H](c1ccc(F)cc1C(F)F)n1nnc2c1CCN(c1cn[nH]c(=O)c1Cl)C2` [drawing 981], the IC50 lay in the range of 0.01 to 1000 nM.
Regarding `O=c1[nH]ncc(N2CCc3c(ncn3Cc3ccccc3C(F)F)C2)c1Cl` [drawing 952], the IC50 lay within 0.01 to 1000 nM.
Same read-out and setting: as for `CNC(=O)c1nc2c(n1Cc1ccccc1C(F)(F)F)CCN(c1cn[nH]c(=O)c1Cl)C2` [drawing 996], the figure is 0.01 to 1000 nM; as for `CCc1ccccc1Cn1cnc2c1CCN(c1cn[nH]c(=O)c1Cl)C2`, 0.01 to 1000 nM.
On the same count and under the same terms, as for `Cc1ccccc1CN1CCN(c2cn[nH]c(=O)c2Cl)CC1=O` [drawing 1008], the figure is 0.01 to 1000 nM.
The same measure, in the same setting: with `CN1CCN(Cc2nn(Cc3ccccc3C(F)F)c3c2CN(c2cn[nH]c(=O)c2Cl)CC3)C(=O)C1` [drawing 975] the figure was 0.01 to 1000 nM; with `C[C@@H]1Cc2c(nnn2[C@@H](C)c2ccc(F)cc2C(F)(F)F)CN1c1cn[nH]c(=O)c1Cl` [drawing 974], 0.01 to 1000 nM.
With `O=C1CN(c2cn[nH]c(=O)c2Br)CCN1Cc1cccc2ccccc12` [drawing 1009], the IC50 is 0.01 to 1000 nM.
Same read-out and setting: with `C[C@@H](c1ccc(F)cc1C(F)(F)F)N1CCN(c2cn[nH]c(=O)c2Cl)CC1=O` [drawing 993] the figure was 0.01 to 1000 nM; with `C[C@@H]1Cc2c(c(C(N)=O)nn2Cc2ccccc2C(F)(F)F)CN1c1cn[nH]c(=O)c1Cl` [drawing 986], 0.01 to 1000 nM; with `C[C@H](c1ccccc1C(F)F)n1nnc2c1CCN(c1cn[nH]c(=O)c1Cl)C2` [drawing 977], 0.01 to 1000 nM.
Same read-out and setting: with `O=c1[nH]ncc(N2CCN(Cc3ccccc3Cl)CC2)c1Cl` [drawing 1010] the figure was 1000 to 5000 nM; with `Cc1ccccc1Cn1cnc2c1CCN(c1cn[nH]c(=O)c1Cl)C2` [drawing 938], 0.01 to 1000 nM; with `Cc1cc(F)ccc1CN1CCN(c2cn[nH]c(=O)c2Cl)CC1` [drawing 1012], 5000 to 10000 nM.
Turning to `COCc1ncccc1Cn1cnc2c1CCN(c1cn[nH]c(=O)c1Cl)C2` [drawing 966], the half-maximal inhibitory concentration (IC50) is 1000 to 5000 nM.
Still for that read-out and setting: with `CNC(=O)c1nn(Cc2ccc(F)cc2C(F)F)c2c1CN(c1cn[nH]c(=O)c1Cl)CC2` [drawing 985] the figure was 0.01 to 1000 nM; with `Cc1ccccc1[C@@H](C)N1CCN(c2cn[nH]c(=O)c2Cl)CC1=O`, 0.01 to 1000 nM; with `O=c1[nH]ncc(N2CCc3c(ncn3Cc3ccccc3)C2)c1Cl` [drawing 939], 0.01 to 1000 nM.
Consider `C[C@@H](c1cccnc1CC(F)F)n1nnc2c1CCN(c1cn[nH]c(=O)c1Cl)C2` [drawing 991], for which the half-inhibitory concentration (IC50) lay in the range of 0.01 to 1000 nM.
With `CCc1ncccc1CN1CCN(c2cn[nH]c(=O)c2Cl)C(C)C1` (stereo not drawn), the 50% inhibitory concentration (IC50) is 5000 to 10000 nM.
For the compound `C[C@@H](c1ccccc1)n1nnc2c1CCN(c1cn[nH]c(=O)c1Cl)C2`, the half-inhibitory concentration (IC50) lay in the range of 1000 to 5000 nM.
Same read-out and setting: as for `O=c1[nH]ncc(N2CCc3c(ncn3Cc3ccccc3Cl)C2)c1Cl` [drawing 1000], the figure is 0.01 to 1000 nM; as for `O=C1CN(c2cn[nH]c(=O)c2Cl)CCN1Cc1ccccc1C(F)F`, 0.01 to 1000 nM; as for `COC[C@H](c1ccccc1C(F)(F)F)n1cnc2c1CCN(c1cn[nH]c(=O)c1Cl)C2` [drawing 988], 0.01 to 1000 nM.
The same measure, in the same setting: with `COc1cc(F)ccc1CN1CCN(c2cn[nH]c(=O)c2Cl)CC1=O` [drawing 1021] the figure was 1000 to 5000 nM; with `NC(=O)c1nc2c(n1Cc1ccccc1C(F)(F)F)CCN(c1cn[nH]c(=O)c1Cl)C2` [drawing 997], 0.01 to 1000 nM.
For the compound `CCc1cc(F)ccc1Cn1cnc2c1CCN(c1cn[nH]c(=O)c1Cl)C2` [drawing 958], the 50% inhibitory concentration (IC50) is 0.01 to 1000 nM.
Still for that read-out and setting: as for `CCN(c1ncc2c(n1)CN(c1cn[nH]c(=O)c1Cl)C2)c1ccccc1Cl` [drawing 1004], the figure is 0.01 to 1000 nM; as for `O=c1[nH]ncc(N2CCc3c(ncn3Cc3ccccc3OC(F)(F)F)C2)c1Cl`, 0.01 to 1000 nM.
On the same count and under the same terms, with `Cc1ncccc1CN1CCN(c2cn[nH]c(=O)c2Cl)CC1` [drawing 1017] the figure was 1000 to 5000 nM; with `O=c1[nH]ncc(N2CCc3c(nnn3Cc3ccc(F)cc3CC(F)(F)F)C2)c1Cl` [drawing 994], 0.01 to 1000 nM.

The target of another assay is T2, TRPC5 (Homo sapiens, UniProt Q9UL62).
T2 construct: expressed in transfected cells; host or cells: HEK 293
T2 sequence (Q9UL62 1-973): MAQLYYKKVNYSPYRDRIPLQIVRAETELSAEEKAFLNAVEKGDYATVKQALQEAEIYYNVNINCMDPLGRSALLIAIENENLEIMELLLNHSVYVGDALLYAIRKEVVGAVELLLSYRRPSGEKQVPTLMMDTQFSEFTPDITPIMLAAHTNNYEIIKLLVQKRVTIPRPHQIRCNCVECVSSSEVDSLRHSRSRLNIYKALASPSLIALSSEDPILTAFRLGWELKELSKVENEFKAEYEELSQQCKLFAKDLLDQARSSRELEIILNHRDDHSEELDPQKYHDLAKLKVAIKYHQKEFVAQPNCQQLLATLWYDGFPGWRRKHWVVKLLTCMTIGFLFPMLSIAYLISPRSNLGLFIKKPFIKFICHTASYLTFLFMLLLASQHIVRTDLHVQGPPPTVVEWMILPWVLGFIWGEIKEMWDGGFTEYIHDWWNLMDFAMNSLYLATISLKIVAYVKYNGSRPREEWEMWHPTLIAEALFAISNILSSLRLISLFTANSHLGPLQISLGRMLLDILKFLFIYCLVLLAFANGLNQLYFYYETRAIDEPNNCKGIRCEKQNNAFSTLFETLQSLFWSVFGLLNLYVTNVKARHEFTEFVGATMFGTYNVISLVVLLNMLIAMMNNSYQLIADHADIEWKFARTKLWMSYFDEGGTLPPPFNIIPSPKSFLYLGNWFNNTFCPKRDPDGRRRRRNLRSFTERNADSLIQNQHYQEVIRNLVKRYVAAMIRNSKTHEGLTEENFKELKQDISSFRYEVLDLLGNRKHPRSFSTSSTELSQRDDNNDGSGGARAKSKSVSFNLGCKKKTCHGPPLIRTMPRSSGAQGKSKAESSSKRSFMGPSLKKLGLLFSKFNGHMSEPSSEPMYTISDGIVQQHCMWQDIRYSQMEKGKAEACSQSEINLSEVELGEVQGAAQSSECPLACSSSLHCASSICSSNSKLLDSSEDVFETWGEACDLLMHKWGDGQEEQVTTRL
Kind of assay: TRPC5 Fluorescence Assay - FLIPR format (HEK-TREx hTRPC5, Riluzole stimulation). The note with it: Table 7, read-out: TRPC5-FLIPR IC50. The class given is cell-based. The method, boiled down:
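Tetracycline-induced HEK-TREx hTRPC5 cells loaded with Fluo-4 AM in EBSS were preincubated 5 min with compound (final 30 μM to 0.0001 μM, 0.3% DMSO), then stimulated with 30 μM Riluzole. Peak fluorescence over 5 min gave % inhibition, normalised to a 1 μM reference inhibitor.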
`NC(=O)c1nn(Cc2ccccc2C(F)F)c2c1CN(c1cn[nH]c(=O)c1Cl)CC2`: the half-inhibitory concentration (IC50) was 0.01 to 1000 nM.

Still in this assay, the particulars now being: Table 9, read-out: hTRPCS-FLIPR IC50.
Consider `CCc1ncccc1[C@@H](CC)N1CCN(c2cn[nH]c(=O)c2Cl)CC1`, for which the IC50 was in the range of 1000 to 5000 nM.
Turning to `COCc1ncccc1CN1CCN(c2cn[nH]c(=O)c2Cl)CC1` [drawing 1030], the IC50 lay within 0.01 to 1000 nM.

The same assay, now with this note: Table 10, read-out: TRPCS-FLIPR IC50.
Turning to `Cn1c(=O)c2c(n1Cc1ccccc1C(F)F)CCN(c1cn[nH]c(=O)c1Cl)C2`, the IC50 fell in the range of 0.01 to 1000 nM.
On to `O=c1[nH]ncc(N2CCc3c(nnn3Cc3ccc(F)cc3Cl)C2)c1Cl`, for which the IC50 was in the range of 0.01 to 1000 nM.
The same measure, in the same setting: as for `O=c1[nH]ncc(N2Cc3cnc(Oc4ccccc4C(F)(F)F)nc3C2)c1Cl`, the figure is 0.01 to 1000 nM; as for `O=c1[nH]ncc(N2CCc3c(c(CN4CCOCC4)nn3Cc3ccccc3C(F)F)C2)c1Cl`, 0.01 to 1000 nM; as for `O=c1[nH]ncc(C2CCc3c(nnn3Cc3ccccc3C(F)(F)F)C2)c1Cl` (stereo not drawn), 10000 to 500000 nM.
Still for that read-out and setting: with `N[C@H](c1cc(F)ccc1Cn1nnc2c1CCN(c1cn[nH]c(=O)c1Cl)C2)C(F)(F)F` the figure was 0.01 to 1000 nM.
